Laboratory results reported in PubChem BioAssay (NCI).
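1) Cells in 96-well plates. 2) Compound, 48 h, 5 concentrations. 3) Linear interpolation between surrounding doses. 4) Unreached endpoint = highest concentration. At the GI50, growth is halved. TGI is the concentration that stops growth completely.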

Key:
Assay in all cases: NCI anticancer screen, dose series, 48 h
HL-60(TB) leukemia = test system: HL-60(TB) leukemia
KM12 colon = test system: KM12 colon
PC-3 prostate = test system: PC-3 prostate
OVCAR-4 ovarian = test system: OVCAR-4 ovarian
NCI-H460 lung = test system: NCI-H460 lung
OVCAR-3 ovarian = test system: OVCAR-3 ovarian
SR leukemia = test system: SR leukemia
HCT-116 colon = test system: HCT-116 colon
MOLT-4 leukemia = test system: MOLT-4 leukemia
NCI-H23 lung = test system: NCI-H23 lung
MCF7 breast = test system: MCF7 breast
SW-620 colon = test system: SW-620 colon
SK-OV-3 ovarian = test system: SK-OV-3 ovarian
SF-539 CNS = test system: SF-539 CNS
K-562 leukemia = test system: K-562 leukemia
UACC-257 melanoma = test system: UACC-257 melanoma
SF-295 CNS = test system: SF-295 CNS
HOP-62 NSCLC = test system: HOP-62 NSCLC
BT-549 breast = test system: BT-549 breast
COLO 205 colon = test system: COLO 205 colon
LOX IMVI melanoma = test system: LOX IMVI melanoma
SNB-19 CNS = test system: SNB-19 CNS
HCT-15 colon = test system: HCT-15 colon
A498 renal = test system: A498 renal
OVCAR-5 ovarian = test system: OVCAR-5 ovarian
HT29 colon = test system: HT29 colon
NCI/ADR-RES ovarian = test system: NCI/ADR-RES ovarian
SK-MEL-28 melanoma = test system: SK-MEL-28 melanoma
SN12C renal = test system: SN12C renal
TK-10 renal = test system: TK-10 renal
SK-MEL-5 melanoma = test system: SK-MEL-5 melanoma
IGROV1 ovarian = test system: IGROV1 ovarian
MDA-MB-231 breast = test system: MDA-MB-231 breast
CAKI-1 renal = test system: CAKI-1 renal
NCI-H226 lung = test system: NCI-H226 lung
MALME-3M melanoma = test system: MALME-3M melanoma
M14 melanoma = test system: M14 melanoma
SNB-75 CNS = test system: SNB-75 CNS
DU-145 prostate = test system: DU-145 prostate
SF-268 CNS = test system: SF-268 CNS
HOP-92 NSCLC = test system: HOP-92 NSCLC
EKVX NSCLC = test system: EKVX NSCLC
786-0 renal = test system: 786-0 renal
UO-31 renal = test system: UO-31 renal
CCRF-CEM leukemia = test system: CCRF-CEM leukemia
A549 NSCLC = test system: A549 NSCLC

Which results are given for `CNCCCNc1c2cc(OC)ccc2nc2cccc([N+](=O)[O-])c12`?
GI50 (HL-60(TB) leukemia): 16.2 nM; GI50 (KM12 colon): 43.1 nM; TGI (KM12 colon): 251 nM; TGI (PC-3 prostate): 277 nM; GI50 (OVCAR-4 ovarian): 16.6 nM; TGI (OVCAR-4 ovarian): 52.8 nM; GI50 (NCI-H460 lung): 25 nM; TGI (NCI-H460 lung): 103 nM; GI50 (OVCAR-3 ovarian): 234 nM; TGI (OVCAR-3 ovarian): 818 nM; GI50 (SR leukemia): 25.3 nM; GI50 (HCT-116 colon): 25.5 nM; TGI (HCT-116 colon): 150 nM; TGI (MOLT-4 leukemia): 48.2 nM; GI50 (NCI-H23 lung): 26.9 nM; TGI (NCI-H23 lung): 220 nM; GI50 (MCF7 breast): 23.4 nM; TGI (MCF7 breast): 101 nM; GI50 (SW-620 colon): 36.9 nM; TGI (SW-620 colon): 517 nM; GI50 (SK-OV-3 ovarian): 65 nM; TGI (SK-OV-3 ovarian): 670 nM; GI50 (SF-539 CNS): 132 nM; TGI (SF-539 CNS): 366 nM; GI50 (K-562 leukemia): 15.3 nM; TGI (K-562 leukemia): 44.9 nM; GI50 (UACC-257 melanoma): 173 nM; TGI (UACC-257 melanoma): 397 nM; GI50 (SF-295 CNS): 40.7 nM; TGI (SF-295 CNS): 258 nM; GI50 (HOP-62 NSCLC): 28.4 nM; TGI (HOP-62 NSCLC): 81 nM; GI50 (BT-549 breast): 186 nM; TGI (BT-549 breast): 406 nM; GI50 (COLO 205 colon): 41.8 nM; TGI (COLO 205 colon): 237 nM; GI50 (LOX IMVI melanoma): 64.1 nM; TGI (LOX IMVI melanoma): 354 nM; GI50 (SNB-19 CNS): 123 nM; TGI (SNB-19 CNS): 519 nM; GI50 (HCT-15 colon): 28.5 nM; GI50 (A498 renal): 63.7 nM; TGI (A498 renal): 271 nM; GI50 (OVCAR-5 ovarian): 24.6 nM; TGI (OVCAR-5 ovarian): 99.3 nM; GI50 (HT29 colon): 22.3 nM; TGI (HT29 colon): 80.6 nM; GI50 (NCI/ADR-RES ovarian): 444 nM; TGI (NCI/ADR-RES ovarian): 3470 nM; GI50 (SK-MEL-28 melanoma): 150 nM; TGI (SK-MEL-28 melanoma): 650 nM; GI50 (SN12C renal): 86.4 nM; TGI (SN12C renal): 16500 nM; TGI (TK-10 renal): 378 nM; GI50 (SK-MEL-5 melanoma): 19 nM; TGI (SK-MEL-5 melanoma): 37.5 nM; GI50 (IGROV1 ovarian): 33.8 nM; TGI (IGROV1 ovarian): 195 nM; GI50 (MDA-MB-231 breast): 69.4 nM; TGI (MDA-MB-231 breast): 672 nM; GI50 (CAKI-1 renal): 30.6 nM; TGI (CAKI-1 renal): 128 nM; GI50 (NCI-H226 lung): 128 nM; TGI (NCI-H226 lung): 385 nM; GI50 (MALME-3M melanoma): 110 nM; TGI (MALME-3M melanoma): 315 nM; GI50 (M14 melanoma): 21.1 nM; TGI (M14 melanoma): 47.6 nM; GI50 (SNB-75 CNS): 61.1 nM; TGI (SNB-75 CNS): 224 nM; GI50 (DU-145 prostate): 45.4 nM; TGI (DU-145 prostate): 14800 nM; GI50 (SF-268 CNS): 56.5 nM; TGI (SF-268 CNS): 376 nM; GI50 (HOP-92 NSCLC): 23.2 nM; TGI (HOP-92 NSCLC): 137 nM; GI50 (EKVX NSCLC): 274 nM; TGI (EKVX NSCLC): 1150 nM; GI50 (786-0 renal): 34.3 nM; TGI (786-0 renal): 306 nM; GI50 (UO-31 renal): 85.5 nM; TGI (UO-31 renal): 275 nM; GI50 (CCRF-CEM leukemia): 17.3 nM; TGI (CCRF-CEM leukemia): 173 nM; GI50 (A549 NSCLC): 32 nM; TGI (A549 NSCLC): 247 nM
